Laboratory results from patent US9657047B2, “Crystallization of epirubicin hydrochloride” (MEDAC GESELLSCHAFT FÜR KLINISCHE SPEZIALPRÄPARATE MBH, priority 2011, dated 2017).

Test: test of thermal stability (storage at 40° C.)
Type: physicochemical
Settings: two weeks and three weeks; for decomposition on storage (thermal stability): crystals stored at 40° C. for one week
Description: The produced crystalline epirubicin hydrochloride was subjected to a test of thermal stability. For this purpose, the produced crystals were stored at a temperature of 40° C. for a time period of one week, two weeks, and three weeks. […] Instead, the crystals remained in unchanged form.
The epirubicin hydrochloride produced was subjected to a test of thermal stability. For this purpose, the epirubicin hydrochloride was stored at a temperature of 40° C. for a time period of one week, two weeks, and three weeks. Within this time frame, a thermal decomposition of epirubicin hydrochloride amplified with increasing storage period by two percent respectively was observed.

thermal decomposition amplified with increasing storage period (stored at 40° C. for one week, increase per storage period)	decomposition on storage (thermal stability)	SMILES
two	–	COc1cccc2c1C(=O)c1c(O)c3c(c(O)c1C2=O)C[C@@](O)(C(=O)CO)C[C@@H]3O[C@H]1C[C@H](N)[C@@H](O)[C@H](C)O1.Cl [Comparison Example 1, epirubicin hydrochloride]
–	no decomposition	COc1cccc2c1C(=O)c1c(O)c3c(c(O)c1C2=O)C[C@@](O)(C(=O)CO)C[C@@H]3O[C@H]1C[C@H](N)[C@@H](O)[C@H](C)O1.Cl [Example 1, epirubicin hydrochloride]
–	no decomposition	COc1cccc2c1C(=O)c1c(O)c3c(c(O)c1C2=O)C[C@@](O)(C(=O)CO)C[C@@H]3O[C@H]1C[C@H](N)[C@@H](O)[C@H](C)O1.Cl [Example 2, epirubicin hydrochloride]
